Experimental data from ChEMBL document CHEMBL5614425, “Novel inhibitors of bromodomain and extra-terminal domain trigger cell death in breast cancer cell lines” (2024).

Legend:
[1] = molecular target: T1, NAD-dependent protein deacetylase sirtuin-2 (Homo sapiens) (UniProt Q8IXJ6); test: Inhibition of SIRT2 (unknown origin) using IU179 as substrate incubated for 30 mins by Fluor de Lys sirtuin assay relative to control; parameters: concentration or dose not given beside the values
T1 sequence (whole entry): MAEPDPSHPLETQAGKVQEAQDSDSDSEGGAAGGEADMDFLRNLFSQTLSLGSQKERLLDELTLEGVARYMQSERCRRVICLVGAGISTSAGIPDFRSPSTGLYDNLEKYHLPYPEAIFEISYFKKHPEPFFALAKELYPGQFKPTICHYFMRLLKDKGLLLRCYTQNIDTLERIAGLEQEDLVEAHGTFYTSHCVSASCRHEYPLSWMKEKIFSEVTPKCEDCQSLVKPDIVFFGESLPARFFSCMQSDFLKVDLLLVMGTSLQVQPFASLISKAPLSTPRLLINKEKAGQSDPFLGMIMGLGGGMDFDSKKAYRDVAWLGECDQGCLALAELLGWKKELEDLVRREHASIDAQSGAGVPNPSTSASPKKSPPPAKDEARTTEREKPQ

T47D [2] = test: Antitumor activity against human T47D cell spheroids assessed as reduction in spheroid growth at 10 to 100 uM measured for >200 hrs by Image J analysis relative to control; format: functional; parameters: scale not given: the % may be the effect or the level left; conditions: dose 10-100 µM
T47D [3] = test: Antitumor activity against human T47D cell spheroids assessed as reduction in spheroid growth at 100 uM measured for >200 hrs by Image J analysis relative to control; format: functional; parameters: scale not given: the % may be the effect or the level left
T47D [4] = test: Antiproliferative activity against human T47D cells assessed as decrease in cell numbers at 10 to 100 uM incubated for 24 hrs by PI staining based analysis relative to control; format: functional; parameters: scale not given: the % may be the effect or the level left; conditions: dose 10-100 µM

Row | Structure (SMILES) | inhibition [1] | Activity (T47D [2]) | Activity (T47D [3]) | Activity (T47D [4])
1 | Cc1ccc(NC(=O)c2ccc(S(=O)(=O)N3CCCCCC3)cc2)c(C)c1 | < 50% | ~20% | 100% | >40%
2 | CC1CCCCN1S(=O)(=O)c1ccc(C(=O)Nc2ccc(N3CCOCC3)c3ccncc23)cc1 (centres undefined) | 84% | – | – | –
3 | COc1cc(/C=N/c2ccc(N3N=C(C)CC3=O)cc2)ccc1O | 50% | – | – | –

The next lines start with results.

Row | inhibition [1] | Structure (SMILES) | Activity (T47D [2]) | Activity (T47D [3]) | Activity (T47D [4])
4 | < 50% | CCOc1ccc(C(C)NC(=O)COc2ccc3c(c2)CCC(=O)N3)cc1 (centres undefined) | – | – | –
5 | < 50% | Cc1cnc2c(c1)N(C(=O)COc1ccc(Cl)c(C)c1)CCC2 | – | – | –
6 | < 50% | NC(=O)C(NC(=O)CCCOc1ccc2c(c1)CCC(=O)N2)C(N)=O | – | – | –
